Where “and” joins values, the source holds several entries; their conditions need not be identical. Equal values may be shown once. Entries after “also recorded” stand apart in the source; their conditions may differ.
Biological target: Thermotoga maritima mPPase (TmPPase) (Thermotoga maritima, UniProt Q9S5X0)
Assay: TmPPase inhibition assay (96-well)
Format: biochemical
Details: for IC50 / IC50 [CI95%]: TmPPase inhibition, NA = IC50 not assigned; for IC50: read-out: IC50 [CI95%]
Description: We started from the previously identified 5‐arylisoxazole‐3‐carboxylate core present in 2–5 (Figure 1, highlighted in blue). Using KNIME,[30] we did a substructure search for commercial analogues in the ZINC12 database[31] […] Therefore, we manually picked compounds from a diverse collection provided by a single vendor (Ambinter, 174 matches for the substructure query). Out of the search results, we selected fifteen isoxazoles for testing in vitro. For all compounds in this manuscript, we tested activity using a 96‐well based assay that detects the inhibition of TmPPase.[22, 23, 24]
All commercially obtained compounds had purities >90 % as specified by the vendor. Synthesized compounds were >95 % pure as determined by LC–MS and characterized by HRMS. The inhibition assay was carried out with purified TmPPase as previously reported.[22, 23, 24] The best hits 17 a, 19 a, and 20 a, were validated using eight compound concentrations in triplicate. Further hit validation was done against the purified mPPase from P. falciparum (PfPPase‐VP1) expressed in baculovirus‐infected insect cells (expression, purification and further enzyme analysis will be described in more detail elsewhere). 4 μL of the purified PfPPase‐VP1 (2.0 mg/mL) was reactivated in 96 μL of reactivation buffer, i. e. 20 mM 2‐(N‐morpholino)ethanesulfonic acid (MES) pH 6.5, 3.5 % (v/v) glycerol, 2 mM dithiothreitol (DTT) and 12 mg/mL L‐α‐phosphatidylcholine from soybean. For each tube strip, 3 μL of the reactivated PfPPase‐VP1 was added into 12 μL of reaction buffer (200 mM Tris‐Cl pH 8.0, 8.0 mM MgCl2, 333 mM KCl, 67 mM NaCl) and 25 μL of inhibitor solution. The reaction mixtures were incubated at 50 °C for 5 min and the assay was started with the addition of 10 μL of 2 mM sodium pyrophosphate and further incubation at 50 °C for 45 min. The reaction termination and colour development were done as earlier described.[22, 23, 24]
6 IC50 plots from the TmPPase inhibition assay
The blue and black curves refer to compounds presented already in the main article and only shown in the Supporting Information, respectively. IC50, half maximal inhibitory concentration; CI95%, half maximal inhibitory concentration expressed as a 95% confidence interval (given in square brackets); […]
IC50 determinations were done using R 3.6.1[2] and the n-parameter logistic regression (nplr) package[3] version 0.1.7. In this package, the weighted nplr, given x (compound concentrations) and y values (activity) is calculated using Richard’s equation (eq 1) where B and T are the bottom and top asymptotes, respectively; b and xmid are the Hill slope and the x coordinate at inflexion point, respectively; and s is an asymmetric coefficient. The model parameters were simultaneously optimized using non-linear minimization, using a sum of squared errors.[4] The standard error of the model, defined as the squared error on the fitted values, is used to estimate a confidence interval at 95% on the predicted IC50 values.

Sequence of Thermotoga maritima mPPase (TmPPase) (Q9S5X0 whole entry): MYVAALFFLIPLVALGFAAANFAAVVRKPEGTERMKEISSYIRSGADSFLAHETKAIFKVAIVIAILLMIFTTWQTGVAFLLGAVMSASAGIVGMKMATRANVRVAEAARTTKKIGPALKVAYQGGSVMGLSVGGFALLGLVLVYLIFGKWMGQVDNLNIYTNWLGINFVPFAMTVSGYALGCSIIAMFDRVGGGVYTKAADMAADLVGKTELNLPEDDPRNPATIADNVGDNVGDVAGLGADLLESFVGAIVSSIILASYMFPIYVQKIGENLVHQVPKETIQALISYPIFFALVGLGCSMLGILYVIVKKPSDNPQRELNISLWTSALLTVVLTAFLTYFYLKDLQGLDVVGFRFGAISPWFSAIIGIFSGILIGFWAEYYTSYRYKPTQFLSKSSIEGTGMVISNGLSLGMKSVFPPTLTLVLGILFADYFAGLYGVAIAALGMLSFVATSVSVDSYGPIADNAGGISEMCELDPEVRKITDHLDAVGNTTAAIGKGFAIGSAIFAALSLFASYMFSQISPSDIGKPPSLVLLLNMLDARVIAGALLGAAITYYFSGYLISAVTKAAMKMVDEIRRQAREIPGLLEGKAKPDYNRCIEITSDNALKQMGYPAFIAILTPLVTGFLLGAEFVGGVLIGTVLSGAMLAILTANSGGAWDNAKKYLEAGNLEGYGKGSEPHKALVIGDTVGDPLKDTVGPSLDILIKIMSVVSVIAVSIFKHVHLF

In the case of C=Cc1cc2nc(C(=O)NCCN)cc(-c3cc(C)cc(C)c3)n2n1 [21 a, N ‐(2‐Aminoethyl)‐7‐(3,5‐dimethylphenyl)‐2‐vinylpyrazolo[1,5‐a]pyrimidine‐5‐carboxamide], the IC50 is reported as 72 µM and the “fold higher inhibition than cyclopropyl-substituted analogue 21 b” value (TmPPase, 21 a versus 21 b) is reported as 3.6 fold.
COc1ccccc1S(=O)(=O)Nc1ccc(N(C)C)cc1 [compound 11] was tested, and the IC50 was < 25 µM and 14 µM and the “ligand efficiency (LE)” value (computed from pIC50 and heavy atom count) was 0.23.
With Cc1cc(C)cc(-c2cc(C(=O)O)nc3cc(Br)nn23)c1 [16 a, 2‐Bromo‐7‐(3,5‐dimethylphenyl)pyrazolo[1,5‐a]pyrimidine‐5‐carboxylic acid] the “IC50 [CI95%]” value was “inactive”.
In the case of C=Cc1cc2nc(C(=O)Oc3ccccc3Br)cc(C3CC3)n2n1 [20 b, 2‐Bromophenyl 7‐cyclopropyl‐2‐vinylpyrazolo[1,5‐a]pyrimidine‐5‐carboxylate], the “IC50 [CI95%]” value is reported as “Inactive”.
For O=C(O)c1cc(C2CC2)n2nc(Br)cc2n1 [16 b, 2‐Bromo‐7‐cyclopropylpyrazolo[1,5‐a]pyrimidine‐5‐carboxylic acid], the “IC50 [CI95%]” value was “completely unsuccessful” and the “IC50 [CI95%]” value (listed as 16b) was “Inactive”.
For CCOC(=O)c1cc(C2CC2)n2nc(Br)cc2n1 [15 b, Ethyl 2‐bromo‐7‐cyclopropylpyrazolo[1,5‐a]pyrimidine‐5‐carboxylate], the “IC50 [CI95%]” value was “only slightly effective” and the IC50 was 150 µM.
With CCOC(=O)c1cc(-c2ccc(OC)c(S(=O)(=O)N3CC(C)CSc4ccccc43)c2)on1 (stereo not drawn) [compound 8] the “IC50 [CI95%]” value was “Inactive; also recorded: not tolerated”.
In the case of CCOC(=O)c1cc(-c2cc(C)cc(C)c2)n2nc(Br)cc2n1 [15 a, Ethyl 2‐bromo‐7‐(3,5‐dimethylphenyl)pyrazolo[1,5‐a]pyrimidine‐5‐carboxylate], the “IC50 [CI95%]” value is reported as “weak activity” and the IC50 is reported as 120 µM.
C=Cc1cc2nc(C(=O)O)cc(C3CC3)n2n1 [19 b, 7‐Cyclopropyl‐2‐vinylpyrazolo[1,5‐a]pyrimidine‐5‐carboxylic acid] was tested, and the “IC50 [CI95%]” value was “Inactive”.
In the case of O=C(Oc1ccccc1Br)c1cc(C2CC2)n2nc(Br)cc2n1 [17 b, 2‐Bromophenyl 2‐bromo‐7‐cyclopropylpyrazolo[1,5‐a]pyrimidine‐5‐carboxylate], the “IC50 [CI95%]” value is reported as “completely unsuccessful” and the “IC50 [CI95%]” value (listed as 17b) is reported as “Inactive”.
With C=Cc1cc2nc(C(=O)NCCN)cc(C3CC3)n2n1 [21 b, N ‐(2‐Aminoethyl)‐7‐cyclopropyl‐2‐vinylpyrazolo[1,5‐a]pyrimidine‐5‐carboxamide] the IC50 was 260 µM.
For CCOC(=O)c1cc(-c2ccc(OC)c(S(=O)(=O)N3CCSc4ccccc43)c2)on1 [compound 9], the “IC50 [CI95%]” value was “Inactive; also recorded: loss of all TmPPase inhibitory activity”.
In the case of CCOC(=O)c1cc(-c2ccc(OC)c(S(=O)(=O)N3CCCSc4ccccc43)c2)on1 [compound 6], the IC50 is reported as 5.4 µM.
CCOC(=O)c1cc(-c2ccc(OC)c(S(=O)(=O)N3c4ccccc4CC3C)c2)on1 (stereo not drawn) [compound 7] was tested, and the IC50 was 56 µM.
In the case of C=Cc1cc2nc(C(=O)OCC)cc(C3CC3)n2n1 [18 b, Ethyl 7‐cyclopropyl‐2‐vinylpyrazolo[1,5‐a]pyrimidine‐5‐carboxylate], the “IC50 [CI95%]” value is reported as “Inactive”.
For CCOC(=O)c1cc(-c2ccc(OC)c(S(=O)(=O)N3CC(C)Sc4ccccc43)c2)on1 (stereo not drawn) [compound 10], the “IC50 [CI95%]” value was “Inactive; also recorded: loss of all TmPPase inhibitory activity”.
With C=Cc1cc2nc(C(=O)OCC)cc(-c3cc(C)cc(C)c3)n2n1 [18 a, Ethyl 7‐(3,5‐dimethylphenyl)‐2‐vinylpyrazolo[1,5‐a]pyrimidine‐5‐carboxylate] the IC50 was 54 µM and the “fold improvement in the inhibition compared to 2-bromo analogue 15 a” value (TmPPase, 18 a versus 15 a) was 2.2 fold.
